# ChEMBL document CHEMBL1201862, “PubChem BioAssay data set” (2004)
#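 Method: 48-hour compound exposure of cells in 96-well plates, five concentrations, linear interpolation of endpoints. GI50: concentration for 50% inhibition of growth.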 Calls of active or inactive are those of the source. Rule as the data show it: active = GI50 up to about 1.1 µM and inactive = higher.
# Tests used:
# Experiment in all cases: NCI anticancer screen, dose series, 48 h
# [1] = test system: 786-0
# [2] = test system: A549
# [3] = test system: ACHN
# [4] = test system: CAKI-1
# [5] = test system: CCRF-CEM
# [6] = test system: COLO 205
# [7] = test system: DLD-1
# [8] = test system: DMS-114
# [9] = test system: DMS-273
# [10] = test system: DU-145
# [11] = test system: EKVX
# [12] = test system: HCC 2998
# [13] = test system: HCT-116
# [14] = test system: HCT-15
# [15] = test system: HL-60
# [16] = test system: HOP-18
# [17] = test system: HOP-62
# [18] = test system: HOP-92
# [19] = test system: HT-29
# [20] = test system: Hs-578T
# [21] = test system: IGROV-1
# [22] = test system: K562
# [23] = test system: KM-20L2
# [24] = test system: KM12
# [25] = test system: LOX IMVI
# [26] = test system: LXFL 529
# [27] = test system: M14
# [28] = test system: M19-MEL
# [29] = test system: MCF7
# [30] = test system: MDA-MB-231
# [31] = test system: MDA-MB-435
# [32] = test system: MDA-N
# [33] = test system: MOLT-4
# [34] = test system: Malme-3M
# [35] = test system: NCI-H226
# [36] = test system: NCI-H23
# [37] = test system: NCI-H460
# [38] = test system: NCI-H522
# [39] = test system: OVCAR-3
# [40] = test system: OVCAR-4
# [41] = test system: OVCAR-5
# [42] = test system: OVCAR-8
# [43] = test system: PC-3
# [44] = test system: RPMI-8226
# [45] = test system: RXF 393
# [46] = test system: SF-268
# [47] = test system: SF-295
# [48] = test system: SF-539
# [49] = test system: SK-MEL-28
# [50] = test system: SK-MEL-2
# [51] = test system: SK-MEL-5
# [52] = test system: SK-OV-3
# [53] = test system: SN12C
# [54] = test system: SNB-19
# [55] = test system: SNB-75
# [56] = test system: SNB-78
# [57] = test system: SR
# [58] = test system: SW-620
# [59] = test system: T47D
# [60] = test system: TK-10
# [61] = test system: U-251
# [62] = test system: UACC-257
# [63] = test system: UACC-62
# [64] = test system: UO-31
# [65] = test system: XF498
# [66] = test system: A498
# [67] = test system: RXF 631
smiles,measurement,setting,value
CO/C1=C\C(C)=C\C(C)C(O)C(C)C/C(C)=C/C=C/C(OC)C(C(C)C(O)C(C)C2(O)CC(O)C(C)C(C(C)C)O2)OC1=O (configuration not stated),GI50,[1],3.31 nM (active)
same,GI50,[2],1.01 nM (active)
same,GI50,[3],14.8 nM (active)
same,GI50,[4],2.05 nM (active)
same,GI50,[5],1.19 nM (active)
same,GI50,[6],3.43 nM (active)
same,GI50,[7],0.0705 nM (active)
same,GI50,[8],4.58 nM (active)
same,GI50,[9],0.261 nM (active)
same,GI50,[10],0.873 nM (active)
same,GI50,[11],56.6 nM (active)
same,GI50,[12],0.757 nM (active)
same,GI50,[13],0.382 nM (active)
same,GI50,[14],0.143 nM
same,GI50,[15],0.134 nM (active)
same,GI50,[16],10100 nM (inactive)
same,GI50,[17],0.051 nM (active)
same,GI50,[18],0.41 nM (active)
same,GI50,[19],0.0664 nM (active)
same,GI50,[20],11 nM (active)
same,GI50,[21],2.23 nM (active)
same,GI50,[22],2.31 nM (active)
same,GI50,[23],0.0112 nM (active)
same,GI50,[24],0.351 nM (active)
same,GI50,[25],0.01 nM (active)
same,GI50,[26],0.323 nM (active)
same,GI50,[27],0.369 nM (active)
same,GI50,[28],3.74 nM (active)
same,GI50,[29],3.71 nM (active)
same,GI50,[30],0.382 nM (active)
same,GI50,[31],1.98 nM (active)
same,GI50,[32],1.82 nM (active)
same,GI50,[33],2.2 nM (active)
same,GI50,[34],11.9 nM (active)
same,GI50,[35],13.4 nM (active)
same,GI50,[36],2.67 nM (active)
same,GI50,[37],0.401 nM (active)
same,GI50,[38],1.12 nM (active)
same,GI50,[39],4.34 nM (active)
same,GI50,[40],10 nM (active)
same,GI50,[41],0.491 nM (active)
same,GI50,[42],1.64 nM (active)
same,GI50,[43],2.52 nM (active)
same,GI50,[44],1.51 nM (active)
same,GI50,[45],5.26 nM (active)
same,GI50,[46],5.19 nM (active)
same,GI50,[47],1.63 nM (active)
same,GI50,[48],1.93 nM (active)
same,GI50,[49],66.1 nM (active)
same,GI50,[50],4.53 nM (active)
same,GI50,[51],0.396 nM (active)
same,GI50,[52],684 nM (active)
same,GI50,[53],10 nM (active)
same,GI50,[54],10900 nM (inactive)
same,GI50,[55],8.57 nM (active)
same,GI50,[56],10200 nM (inactive)
same,GI50,[57],0.0908 nM (active)
same,GI50,[58],0.471 nM (active)
same,GI50,[59],2.97 nM (active)
same,GI50,[60],14500 nM (inactive)
same,GI50,[61],7.06 nM (active)
same,GI50,[62],6.34 nM (active)
same,GI50,[63],2.8 nM (active)
same,GI50,[64],2.78 nM (active)
same,GI50,[65],24.2 nM (active)
Cc1ccc(-c2nc3c(C(=O)NCCN(C)C)cccc3[nH]2)cc1,GI50,[1],24400 nM (inactive)
same,GI50,[66],13000 nM (inactive)
same,GI50,[2],11200 nM (inactive)
same,GI50,[3],10300 nM (inactive)
same,GI50,[4],23500 nM (inactive)
same,GI50,[5],11500 nM (inactive)
same,GI50,[6],8000 nM (inactive)
same,GI50,[7],13500 nM (inactive)
same,GI50,[8],13300 nM (inactive)
same,GI50,[9],9060 nM (inactive)
same,GI50,[11],24400 nM (inactive)
same,GI50,[12],14300 nM (inactive)
same,GI50,[13],5060 nM (inactive)
same,GI50,[14],13900 nM
same,GI50,[15],14200 nM (inactive)
same,GI50,[16],15300 nM (inactive)
same,GI50,[17],15900 nM (inactive)
same,GI50,[18],13100 nM (inactive)
same,GI50,[19],15500 nM (inactive)
same,GI50,[21],15900 nM (inactive)
same,GI50,[22],13700 nM (inactive)
same,GI50,[24],20000 nM (inactive)
same,GI50,[25],11100 nM (inactive)
same,GI50,[27],15800 nM (inactive)
same,GI50,[28],16200 nM (inactive)
same,GI50,[33],3510 nM (inactive)
same,GI50,[35],11900 nM (inactive)
same,GI50,[36],15000 nM (inactive)
same,GI50,[37],4890 nM (inactive)
same,GI50,[39],21500 nM (inactive)
same,GI50,[40],22900 nM (inactive)
same,GI50,[41],20900 nM (inactive)
same,GI50,[42],15200 nM (inactive)
same,GI50,[45],10700 nM (inactive)
same,GI50,[67],4890 nM (inactive)
same,GI50,[46],18500 nM (inactive)
same,GI50,[47],16700 nM (inactive)
same,GI50,[48],9120 nM (inactive)
same,GI50,[49],18400 nM (inactive)
same,GI50,[50],18500 nM (inactive)
same,GI50,[51],13700 nM (inactive)
same,GI50,[52],14500 nM (inactive)
same,GI50,[53],11500 nM (inactive)
same,GI50,[54],26100 nM (inactive)
same,GI50,[55],18000 nM (inactive)
same,GI50,[56],20200 nM (inactive)
same,GI50,[58],6270 nM (inactive)
same,GI50,[60],17700 nM (inactive)
same,GI50,[61],18300 nM (inactive)
same,GI50,[62],14000 nM (inactive)
same,GI50,[63],18100 nM (inactive)
same,GI50,[64],9790 nM (inactive)
